Values of other authors, collected in patent US20210251946A1, “CANNABINOID-[…], FORMULATIONS, AND USES THEREOF FOR TREATING AMYOTROPHIC LATERAL SCLEROSIS” (GREEN RUSH SCIENCE, LLC, priority 2020, published 2021).

Experiments:
ALS hSOD(G93A) mice [1] = details: daily intraperitoneal administration, initiated after disease onset
ALS hSOD(G93A) mice [2] = details: intraperitoneally, beginning after onset of motor impairment and tremor (at 90 days old)

Row | SMILES | increase of survival (ALS hSOD(G93A) mice [1]) [%] | motor impairment (ALS hSOD(G93A) mice [1]) | disease progression (ALS hSOD(G93A) mice [2])
1 | CN1CCCCC1Cn1cc(C(=O)c2cc([N+](=O)[O-])ccc2I)c2ccccc21 (stereo not drawn) [AM-1241] | 56 | delayed motor impairment | 
2 | Cc1c(C(=O)c2cccc3ccccc23)c2cccc3c2n1[C@H](CN1CCOCC1)CO3 [WIN 55,212-2] |  |  | significant delay in disease progression
